Values after ≈ are worked out from the molar mass of the structure shown. Where two headings read alike, the source gives them in different places.
Experiments:
[1] = test system: delayed-type hypersensitivity (DTH); assay: Suppressive effect on delayed-type hypersensitivity (DTH) in mouse, oral; format: in vivo, mouse (CDF1); details: oral once a day, 0~4th day
Experimental: CDF1 mice were immunized by intravenously injecting sheep red blood cells (10^5 cells/mouse). On the 4th day after the immunization, sheep red blood cells (10^8 cells/mouse) were subcutaneously injected into the footpad of mice for the elicitation to cause a delayed-type hypersensitivity. Test compound was orally administered to the mice once a day from the 0 th day to the 4 th day after the immunization. On the 5th day after the elicitation, the thickness of the mouse footpad was measured to estimate the suppressive effect of the test compound on DTH. The suppressive effect of the test compound was evaluated in terms of the inhibition rate (%) as calculated according to the following equation:
Inhibition rate (%)=100-(T/C×100)
wherein T denotes the thickness of the footpad when the test compound was administered, but C denotes the thickness of the footpad when no test compounnd was administered.

Pellicularia sasakii = assay: MIC, agar plate dilution method; format: cell-based; details: 27° C., 42 hours, nutrient agar containing glucose
Mouse leukemia EL-4 = assay: Inhibitory activity on proliferation of cancer cells; format: cell-based; details: EL4
Xanthomonas citri = assay: MIC, agar plate dilution method; format: cell-based; details: 27° C., 42 hours, nutrient agar containing glucose
Experimental: (§1) Delaminomycins A, B, C, A2, B2 and C2 according to this invention further have an antibacterial activity against a variety of bacteria. The minimum growth inhibitory concentrations (MIC) (μg/ml) of the novel antibiotics of this invention on various bacteria and fungi as measured by the agar plate dilution method are shown in Table 5a, Table 5b, Table 5c and Table 5d below.
(§2) Evaluated after culturing at 27° C. for 42 hours in nutrient agar
(§3) medium containing glucose.

Cochliobolus miyabeanus = assay: MIC, agar plate dilution method; format: cell-based; details: Bipolaris oryzae; 27° C., 42 hours, nutrient agar containing glucose
Experimental: as §1, §2, §3

Candida krusei F-5 = assay: MIC, agar plate dilution method; format: cell-based; details: Pichia kudriavzevii, F5; 27° C., 42 hours, nutrient agar containing glucose
Piricularia oryzae = assay: microbe, parasite or virus in culture; format: cell-based; details: 42 h
[2] = test system: Saccharomyces cerevisiae F-7; assay: MIC, agar plate dilution method; format: cell-based; details: F7, 27° C., 42 hours, nutrient agar containing glucose
Candida albicans 3147 = assay: MIC, agar plate dilution method; format: cell-based; details: 27° C., 42 hours, nutrient agar containing glucose
Mouse leukemia L-1210 = assay: Inhibitory activity on proliferation of cancer cells; format: cell-based; details: L1210
[3] = test system: spleen cells (T cells activated by Concanavalin A); assay: Inhibitory activity against blastogenesis and proliferation of spleen cells caused by mitogen (Con A); format: cell-based, mouse (CDF1); details: for IC50: read-out: IC50 (inhibition of blastogenesis and proliferation of spleen lymphocyte caused by Con A); for inhibition at 0.39 µg/mL: 0.39 μg/ml test compound; for inhibition at 6.25 µg/mL: 6.25 μg/ml test compound; for inhibition at 25 µg/mL: 25 μg/ml test compound; for inhibition at 100 µg/mL: 100 μg/ml test compound; for activity inhibitory to the reaction of proliferation of mouse spleen cells activated with Concanavalin A: in vitro, result in words; for inhibition at 1.56 µg/mL: 1.56 μg/ml test compound
Mouse melanoma B-16 = assay: Inhibitory activity on proliferation of cancer cells; format: cell-based; details: B16
[4] = test system: Candida pseudotropicalis F-2; assay: MIC, agar plate dilution method; format: cell-based; details: Kluyveromyces marxianus, F2; 27° C., 42 hours, nutrient agar containing glucose
Candida tropicalis F-1 = assay: MIC, agar plate dilution method; format: cell-based; details: F1, 27° C., 42 hours, nutrient agar containing glucose
Human Lymphoma Jurkat = assay: Inhibitory activity on proliferation of cancer cells; format: cell-based
Solubility = details: result in words; for Solubility: various solvents
[5] = test system: Trichophyton mentagrophytes F-15 (833); assay: MIC, agar plate dilution method; format: cell-based; details: 27° C., 42 hours, nutrient agar containing glucose
[6] = test system: Trichophyton asteroides 429; assay: MIC, agar plate dilution method; format: cell-based; details: 27° C., 42 hours, nutrient agar containing glucose
Aspergillus niger F-16 = assay: MIC, agar plate dilution method; format: cell-based; details: F16, 27° C., 42 hours, nutrient agar containing glucose
Mouse leukemia P388D1 = assay: Inhibitory activity on proliferation of cancer cells; format: cell-based
[7] = Absorption into the digestive tracts on oral administration; details: result in words
Candida Yu-1200 = assay: MIC, agar plate dilution method; format: cell-based; details: YU1200, 27° C., 42 hours, nutrient agar containing glucose
[8] = test system: nylon wool-passed cells of spleen cells (responder cell; T cells); assay: Inhibitory activity to the mixed lymphocyte culture reaction; format: cell-based, rat (Fischer F344 responder; WKY stimulator); details: for inhibition at 1.56 µg/mL / inhibition at 0.1 µg/mL / inhibition at 0.39 µg/mL / inhibition at 6.25 µg/mL / inhibition at 25 µg/mL / inhibition at 100 µg/mL / IC50: Rattus norvegicus, T-cell; for inhibition at 1.56 µg/mL / inhibition at 0.1 µg/mL / inhibition at 0.39 µg/mL / inhibition at 6.25 µg/mL / inhibition at 25 µg/mL / inhibition at 100 µg/mL: read-out: Inhibition rate; for inhibition at 0.1 µg/mL: 0.10 μg/ml test compound; for inhibition at 0.39 µg/mL: 0.39 μg/ml test compound; for inhibition at 6.25 µg/mL: 6.25 μg/ml test compound; for inhibition at 25 µg/mL: 25 μg/ml test compound; for inhibition at 100 µg/mL: 100 μg/ml test compound; for IC50: 120 hours, 3H-thymidine incorporation, read-out: IC50 (inhibition of mixed lymphocyte culture reaction); for activity to inhibit the proliferation of the T cells (responder cell) in mixed lymphocyte culture reaction: in vitro, result in words
Gram-positive bacteria = assay: Antibacterial activity to Gram-positive bacteria; format: cell-based; details: result in words
From the text: as §1

[9] = Mus musculus, T-cell, read-out: Inhibition rate

SMILES | Inhibition rate (DTH footpad thickness) ([1]; 2.0 mg/mouse) [%] | MIC (Pellicularia sasakii) [µg/mL] | IC50 (Mouse leukemia EL-4) [µg/mL] | IC50 (Mouse leukemia L-1210) [µg/mL] | IC50 ([3]; Mus musculus, T-cell) [µg/mL] | inhibition at 0.39 µg/mL [3, 9] [%] | inhibition at 6.25 µg/mL [3, 9] [%] | inhibition at 25 µg/mL [3, 9] [%] | inhibition at 100 µg/mL [3, 9] [%] | activity inhibitory to the reaction of proliferation of mouse spleen cells activated with Concanavalin A [3] | Solubility (Solubility) | Solubility in water (Solubility) | absorption into the digestive tracts / oral absorption [7] | inhibition at 0.1 µg/mL [8] [%] | inhibition at 0.39 µg/mL [8] [%] | inhibition at 6.25 µg/mL [8] [%] | inhibition at 25 µg/mL [8] [%] | inhibition at 100 µg/mL [8] [%] | IC50 [8] [µg/mL] | activity to inhibit the proliferation of the T cells (responder cell) in mixed lymphocyte culture reaction [8] | other results
CCC(OS(=O)(=O)O)C(C)/C=C/C=C/C1CC2C=CC3CC(C)CC(C)C3C2(C)C(=O)C12C(=O)NC(O)C2=O (stereo not drawn) | 56.3 |  |  |  |  |  |  |  |  |  |  |  |  |  |  |  |  |  |  |  | Inhibition rate (DTH footpad thickness) ([1]; 0.5 mg/mouse): -0.7%; Inhibition rate (DTH footpad thickness) ([1]; 8.0 mg/mouse): 85.2%
CCC(OS(=O)(=O)O)C(C)/C=C/C=C/C1CC2C=CC3CC(C)CC(C)C3C2(C)C(=O)C12C(=O)NC(OC)C2=O (stereo not drawn) | 40.2 |  |  |  |  |  |  |  |  |  |  |  |  |  |  |  |  |  |  |  | 
CCC(OS(=O)(=O)O)C(C)/C=C/C=C/C1CC2C=CC3CC(C)CC(C)C3C2(C)C(=O)C12C(=O)CNC2=O (stereo not drawn) | 35.4 |  |  |  |  |  |  |  |  |  |  |  |  |  |  |  |  |  |  |  | 
CCC(O)C(C)/C=C/C=C/C(O)CC1C=CC2CC(C)CC(C)C2C1(C)C(=O)C1C(=O)NC(OC)C1=O (stereo not drawn) [Delaminomycin B] |  | > 50 | 11.1 (≈ 21.5 µM) | 30 (≈ 58.2 µM) | 4 (≈ 7.76 µM) | 0 | 77 | 69 | 70 | exhibit an activity inhibitory to the reaction of proliferation of mouse spleen cells | soluble in methanol but slightly soluble or insoluble in water, acetone, ethyl ether and n-hexane | barely soluble in water | hardly absorbed into the digestive tracts | 12.1 | 27.9 | 95.1 | 95 | 93.2 | 1.1 (≈ 2.13 µM) | have an activity to inhibit the reaction of proliferation of the T cells | MIC (Xanthomonas citri): > 100 µg/mL; MIC (Cochliobolus miyabeanus): > 100 µg/mL; MIC (Candida krusei F-5): > 100 µg/mL; MIC (Piricularia oryzae): > 100 µg/mL; MIC [2]: > 100 µg/mL; MIC (Candida albicans 3147): > 100 µg/mL; IC50 (Mouse melanoma B-16): > 100 µg/mL; MIC [4]: > 100 µg/mL; MIC (Candida tropicalis F-1): > 100 µg/mL; IC50 (Human Lymphoma Jurkat): 8.2 µg/mL (≈ 15.9 µM); MIC [5]: > 100 µg/mL; MIC [6]: > 100 µg/mL; MIC (Aspergillus niger F-16): > 100 µg/mL; IC50 (Mouse leukemia P388D1): 13.3 µg/mL (≈ 25.8 µM); MIC (Candida Yu-1200): > 100 µg/mL; inhibition at 1.56 µg/mL [8]: 58.4%
CCC(O)C(C)/C=C/C=C/C1CC2C=CC3CC(C)CC(C)C3C2(C)C(=O)C12C(=O)CNC2=O (stereo not drawn) [Delaminomycin C2] | 25.7 |  |  | 3.6 (≈ 7.7 µM) | 1.6 (≈ 3.42 µM) | 0 | 84 | 85 | 93 | exhibit an activity inhibitory to the reaction of proliferation of mouse spleen cells | Soluble in methanol, ethyl acetate and chloroform but slightly soluble or insoluble in n-hexane and water | barely soluble in water | hardly absorbed into the digestive tracts | -7 | -6 | -1 | 29 | 99 | 37.9 (≈ 81 µM) | have an activity to inhibit the reaction of proliferation of the T cells | inhibition at 0.1 µg/mL ([3]; Mus musculus, T-cell, 0.1 μg/ml test compound, read-out: Inhibition rate): 0%; inhibition at 1.56 µg/mL [3, 9]: 49%; antibacterial activity to Gram-positive bacteria (Gram-positive bacteria): antibacterial activity to Gram-positive bacteria; inhibition at 1.56 µg/mL ([8]; 1.56 μg/ml test compound): 1%
CCC(O)C(C)/C=C/C=C/C(O)CC1C=CC2CC(C)CC(C)C2C1(C)C(=O)C1C(=O)CNC1=O (stereo not drawn) [Delaminomycin C] |  | > 50 | 1.9 (≈ 3.91 µM) | 42 (≈ 86.5 µM) | 1 (≈ 2.06 µM) | 1 | 75 | 76 | 76 | exhibit an activity inhibitory to the reaction of proliferation of mouse spleen cells | soluble in methanol but slightly soluble or insoluble in water, acetone, ethyl ether and n-hexane | barely soluble in water | hardly absorbed into the digestive tracts | 19.5 | 41.6 | 97.3 | 97.6 | 96.9 | 0.5 (≈ 1.03 µM) | have an activity to inhibit the reaction of proliferation of the T cells | MIC (Xanthomonas citri): > 100 µg/mL; MIC (Cochliobolus miyabeanus): > 100 µg/mL; MIC (Candida krusei F-5): > 100 µg/mL; MIC (Piricularia oryzae): > 100 µg/mL; MIC [2]: > 100 µg/mL; MIC (Candida albicans 3147): > 100 µg/mL; inhibition at 1.56 µg/mL [3, 9]: 75%; IC50 (Mouse melanoma B-16): 7.4 µg/mL (≈ 15.2 µM); MIC [4]: > 100 µg/mL; MIC (Candida tropicalis F-1): > 100 µg/mL; IC50 (Human Lymphoma Jurkat): 1.2 µg/mL (≈ 2.47 µM); antibacterial activity to Gram-positive bacteria (Gram-positive bacteria): antibacterial activity to Gram-positive bacteria; MIC [5]: > 100 µg/mL; MIC [6]: > 100 µg/mL; MIC (Aspergillus niger F-16): > 100 µg/mL; IC50 (Mouse leukemia P388D1): 3.1 µg/mL (≈ 6.38 µM); MIC (Candida Yu-1200): > 100 µg/mL; inhibition at 1.56 µg/mL ([8]; 1.56 μg/ml test compound): 89%

— patent publication US5527820A, “Antibiotics having immunosuppressive activity, delaminomycins and processes for the production of the same” (priority 1992, dated 1996)
